Data reported in patent US12139505B2, “Compositions useful in therapy of autophagy-related pathologies, and methods of making and using the same” (The University of Toledo, priority 2017, dated 2024).
“Also recorded” adds a separate entry of the source.

Tests used:
[1] = system: SH-SY5Y cells; assay: Western blot for LC3-II (autophagy induction with bafilomycin-A1); assay type: cell-based, human
Experimental: (FIG. 35B). […] In a dose dependent manner with a maximum of 6 μM.
2-n-hexyl-LKE-P drug solutions in CCM from 0.1 to 100 μM were prepared as above for the viability assay except that the drug solutions contained 10 nM bafilomycin A1. For positive control: 50 nM rapamycin in CCM containing 10 nM bafilomycin A1 was used. For negative control: 1 μL of DMSO is dissolved in every 100 μL of CCM containing 10 nM bafilomycin A1. When SH-SY5Y cells were 85-90% confluent, 300,000 cells per well were seeded into 12-well plates. Cells were exposed to four concentrations of 2-n-hexyl-LKE-P, positive control and negative control for 4 hours at 37° C. in 5% CO2 in air atmosphere. Subsequently, the cells were washed with PBS, next, 0.25% Trypsin/EDTA was used to aid in detaching the cells and CCM was then added to neutralize the Trypsin/EDTA and wash the cells from the dish. Washed cells were collected in a centrifuge tube for concentration. After centrifugation at 2000 RPM for 5 minutes, the cells were re-suspended in PBS and re-centrifuged to pellets. The supernatant was then discarded and the cell pellets were frozen in −20° C. freezer. 50 μL lysis buffer (RIPA buffer plus, 1 mM sodiumorthovanadate, 5 mM β-glycerophosphate and 1:200 mammalian protease inhibitor cocktail) was added to the cells and the cells were re-suspended in the lysis buffer. […] The membranes were then ready for imaging.

[2] = system: RG2 glioma cells; assay: Proliferative capacity of glioma cells, tetrazolium reduction assay; assay type: cell-based, rat
Experimental: Biomarkers of autophagy have been positively correlated with relatively better prognosis (longer patient lifespan) in humans suffering from high grade glioma. Accordingly, phosphonate analogs were tested for ability to reduce replicative capacity in RG2 glioma cells wherein the compounds increase autophagy. Cells were plated at low density (approximately 25,000 cells/[…]) using general cell culture methods, and treated with logarithmic dilutions of test agent. After 24 or 48 hours, cell number was estimated by tetrazolium reduction assay using a commercially available kit (Promega Aqueous OneStep™). […] By 48 h the cells had largely achieved confluence and became somewhat contact inhibited, thus reducing the difference between control and treatment groups.

Structure (SMILES): CCCCCCC1=C(P(=O)(O)O)N[C@H](C(=O)OCC)CS1 [2-n-hexyl-LKE-P]
- autophagy stimulation (LC3-I, LC3-II) ([1]; in the presence of bafilomycin-A1): stimulates autophagy in a dose dependent manner; also recorded: able to stimulate autophagy
- concentration of maximum autophagy stimulation ([1]; in the presence of bafilomycin-A1, 0.1 to 10 μM tested): 6 µM
- fewer cells (reduced replicative capacity) relative to cells treated with no drug ([2]; 24 h, greater than or equal to 1 nM): at least 50%
- concentration range of the minimum in cell number ([2]; 48 h): 1 to 10 mM
- replication of cultures ([2]; first 24 h): replicated more slowly in the first 24 h
